From patent US9272978B2, “Hydroxy acid ester compound of substituted phenol, preparation method and medical use thereof” (West China Hospital, Sichuan University, priority 2010, dated 2016)

Columns and labels:
[1] = disclosed in WO200213810; cited from earlier work
[2] = disclosed in WO200213810; cited from earlier work; remark: listed apart in the source
[3] = mouse, rat or rabbit plasma, 37° C., 10 mg/ml solution, 0 min to 4 h, HPLC
Experimental: Three parallel solutions of propofol hydroxybutyrate of Example 1 with a concentration of 10 mg/ml were prepared, added into and mixed with the mouse, rat or rabbit plasma, which was pre-placed in water bath (37° C.), respectively.
Three parallel solutions of propofol hydroxyvalerate of Example 3 with a concentration of 10 mg/ml were prepared, added into and mixed with mouse, rat or rabbit plasma, which was pre-placed in water bath (37° C.), respectively.

Kunming mice = conditions: tail vein injection; for disappearance time of FRR (onset time) / recovery time (recovery of FRR): during determination of ED50; for Median effective dose (ED50), disappearance of forepaw righting reflex: up-and-down method
Experimental: (§1) 60 Kunming mice with half males and half females were randomly divided into the drug test group (propofol hydroxybutyrate of the present invention) (n=30) and the Diprivan™ control group (positive control drug Diprivan™) (n=30). Median effective doses (ED50) of the substituted phenol hydroxy acid ester and Diprivan™ were determined by the up-and-down method. In the test, the mice were injected with the drugs through the tail veins, with the disappearance of the forepaw righting reflex (FRR) of the mice as a judgment index of the end point of anesthesia; the recovery of FRR of the mice as an index of recovery from anesthesia.
as §1, with “hydroxyvalerate” for “hydroxybutyrate”, “FRR” for “the forepaw righting reflex (FRR)”

## CC(C)c1cccc(C(C)C)c1OC(=O)CCC(=O)[O-].[Na+] [propofol succinic acid monoester sodium salt]
[1]
  stability in aqueous solution: unstable in aqueous solution
[2]
  water-solubility: high water-solubility

## CC(C)c1cccc(C(C)C)c1OC(=O)CCCO [propofol hydroxybutyrate, propofol ω-hydroxybutyrate]
[3]
  in vitro decomposition in the plasma into the active compound propofol: can be rapidly decomposed into the active compound propofol
Kunming mice
  anesthetic effect: definite and reversible anesthetic effect
  disappearance time of FRR (onset time): 45.3 ± 12.3 s
  recovery time (recovery of FRR): 235.6 ± 67.9 s
  Median effective dose (ED50), disappearance of forepaw righting reflex: 52 mg/kg

## CC(C)c1cccc(C(C)C)c1OC(=O)CCCCO [propofol hydroxyvalerate, propofol ω-hydroxyvalerate]
[3]
  in vitro decomposition in the plasma into the active compound propofol: can be rapidly decomposed into the active compound propofol
Kunming mice
  disappearance time of FRR (onset time): 46.1 ± 9.5 s
  recovery time (recovery of FRR): 256.1 ± 61.2 s
  Median effective dose (ED50), disappearance of forepaw righting reflex: 60 mg/kg
